Test results reported in the supplement of paper PMC10627819.

Key:
S. pneumoniae D39V [1] = assay: Bliss interaction score (quartile over a dose matrix) (fitness difference); higher = more antagonism (negative = synergy)
How it was run: (§1)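 Combination data were used to infer fitness under each single drug. Fitness is the OD595 at entry into stationary phase divided by the robust mean of the plate's no-drug wells, with a cap of 1. The Bliss score is the observed minus the expected product fitness, summarised by quartiles over technical, biological and donor/recipient replicates.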

S. aureus Newman = assay: as above
How it was run: as §1

S. aureus DSM 20231 [2] = assay: as above
How it was run: as §1

B. subtilis 168 [3] = assay: as above
How it was run: as §1

S. pneumoniae D39V [4] = assay: fitness (endpoint OD595 vs no drug) (fraction); higher = more growth
How it was run: (§2)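 In 384-well plates at 37 °C, cultures began at OD595 0.01 in 30 µl, with 55 µl used for S. pneumoniae. OD595 readings every 30 min for 14 h were corrected by the first reading. Fitness divides the stationary-phase transition optical density by the robust mean of no-drug control wells. The result is capped at 1.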

S. aureus DSM 20231 [5] = assay: as above
How it was run: as §2

B. subtilis 168 [6] = assay: as above
How it was run: as §2
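For Bliss interaction score (quartile over a dose matrix) in this document: first quartile when negative (synergy) and third quartile when positive (antagonism).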

CCCCCCCCCC(=O)N[C@@H](Cc1c[nH]c2ccccc12)C(=O)N[C@H](CC(N)=O)C(=O)N[C@@H](CC(=O)O)C(=O)N[C@@H]1C(=O)NCC(=O)N[C@@H](CCCN)C(=O)N[C@@H](CC(=O)O)C(=O)N[C@H](C)C(=O)N[C@@H](CC(=O)O)C(=O)NCC(=O)N[C@H](CO)C(=O)N[C@@H]([C@H](C)CC(=O)O)C(=O)N[C@@H](CC(=O)c2ccccc2N)C(=O)O[C@@H]1C [Daptomycin] + CCC[C@@H]1C[C@@H](C(=O)N[C@@H]([C@H]2O[C@H](SC)[C@H](O)[C@@H](O)[C@H]2O)[C@@H](C)O)N(C)C1 [Lincomycin]
Conditions	Bliss interaction score
B. subtilis 168 [3]	-0.0659
S. aureus DSM 20231 [2]	0.099
S. aureus Newman	0.0732
S. pneumoniae D39V [1]	-0.133

fitness
Conditions	partner 0.1 µg/mL	partner 0.2 µg/mL	partner 0.215 µg/mL	partner 0.4 µg/mL	partner 0.43 µg/mL	partner 0.8 µg/mL	partner 0.86 µg/mL
B. subtilis 168 [6], first compound 0.125 µg/mL	0.865	0.904	–	0.863	–	–	–
B. subtilis 168 [6], first compound 0.25 µg/mL	0.869	0.901	–	0.848	–	–	–
B. subtilis 168 [6], first compound 0.5 µg/mL	0.937	0.905	–	–	–	–	–
S. aureus DSM 20231 [5], first compound 0.5 µg/mL	0.962	0.821	–	–	–	–	–
S. aureus DSM 20231 [5], first compound 1 µg/mL	0.911	0.806	–	–	–	–	–
S. aureus DSM 20231 [5], first compound 2 µg/mL	0.937	0.817	–	–	–	–	–
S. pneumoniae D39V [4], first compound 1 µg/mL	–	0.409	0.764	0.22	0.697	0.053	0.396
S. pneumoniae D39V [4], first compound 2 µg/mL	–	0.405	0.764	0.241	0.72	0.0442	0.408
S. pneumoniae D39V [4], first compound 4 µg/mL	–	0.366	0.802	0.204	0.702	0.0329	0.411

fitness, B. subtilis 168 [6], one replicate
Conditions	first compound 0.25 µg/mL	first compound 0.5 µg/mL	first compound 1 µg/mL
partner 0.4 µg/mL	–	–	0.686
partner 0.8 µg/mL	0.851	0.788	0.647
partner 1.6 µg/mL	0.797	0.81	0.657
